Calls of active or inactive are those of the source. The calls are words filed in the database; no cut-off is given here.
Columns and labels:
Frequenin-2 = biological target: T1, Frequenin-2 (Drosophila melanogaster, UniProt Q9VWX8); test: Binding affinity to drosophila NCS1 expressed in Escherichia coli BL21 (DE3) by fluorescence emission assay; details: read-out: Kd(app)
T1 sequence (Q9VWX8 whole entry): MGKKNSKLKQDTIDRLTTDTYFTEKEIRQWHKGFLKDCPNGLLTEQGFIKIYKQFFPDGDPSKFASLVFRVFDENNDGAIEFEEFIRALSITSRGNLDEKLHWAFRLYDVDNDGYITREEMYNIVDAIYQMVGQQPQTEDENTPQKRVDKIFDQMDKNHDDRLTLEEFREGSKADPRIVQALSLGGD

[1] = biological target: T2, Frequenin-2 (Drosophila melanogaster) (UniProt Q9VWX8); test: Binding affinity to drosophila NCS1 expressed in Escherichia coli BL21 (DE3) by STD-NMR method
T2 sequence (whole entry): T1 sequence (Q9VWX8 whole entry)

[2] = biological target: Neuronal calcium sensor 1/Synembryn-A (Homo sapiens) (UniProt P62166+Q9NPQ8); test: Inhibition of human NCS1 and V5-tagged Ric8a interaction expressed in HEK293 cells at 20 uM after 24 hrs by Western blot analysis relative to control; type: cell-based
[3] = biological target: Neuronal calcium sensor 1 (Homo sapiens, UniProt P62166); test: Binding affinity to human NCS1 expressed in Escherichia coli BL21 Star (DE3) by fluorescence emission assay; details: read-out: Kd(app)
Chain of Neuronal calcium sensor 1 (P62166 2-190 limits assumed): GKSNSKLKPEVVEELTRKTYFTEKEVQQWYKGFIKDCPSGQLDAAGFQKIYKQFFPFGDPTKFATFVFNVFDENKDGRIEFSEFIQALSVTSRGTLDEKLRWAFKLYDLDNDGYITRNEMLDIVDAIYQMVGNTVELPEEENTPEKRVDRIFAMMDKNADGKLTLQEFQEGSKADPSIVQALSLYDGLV

Chain of Neuronal calcium sensor 1/Synembryn-A (Homo sapiens) (P62166 whole entry, looked up): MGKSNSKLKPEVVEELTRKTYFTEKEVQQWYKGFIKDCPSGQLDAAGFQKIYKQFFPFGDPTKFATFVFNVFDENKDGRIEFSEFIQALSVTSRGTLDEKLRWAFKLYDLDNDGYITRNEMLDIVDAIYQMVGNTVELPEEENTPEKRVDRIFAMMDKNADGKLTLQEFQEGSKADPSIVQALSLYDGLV
Chain of Neuronal calcium sensor 1/Synembryn-A (Homo sapiens) (Q9NPQ8 whole entry, looked up): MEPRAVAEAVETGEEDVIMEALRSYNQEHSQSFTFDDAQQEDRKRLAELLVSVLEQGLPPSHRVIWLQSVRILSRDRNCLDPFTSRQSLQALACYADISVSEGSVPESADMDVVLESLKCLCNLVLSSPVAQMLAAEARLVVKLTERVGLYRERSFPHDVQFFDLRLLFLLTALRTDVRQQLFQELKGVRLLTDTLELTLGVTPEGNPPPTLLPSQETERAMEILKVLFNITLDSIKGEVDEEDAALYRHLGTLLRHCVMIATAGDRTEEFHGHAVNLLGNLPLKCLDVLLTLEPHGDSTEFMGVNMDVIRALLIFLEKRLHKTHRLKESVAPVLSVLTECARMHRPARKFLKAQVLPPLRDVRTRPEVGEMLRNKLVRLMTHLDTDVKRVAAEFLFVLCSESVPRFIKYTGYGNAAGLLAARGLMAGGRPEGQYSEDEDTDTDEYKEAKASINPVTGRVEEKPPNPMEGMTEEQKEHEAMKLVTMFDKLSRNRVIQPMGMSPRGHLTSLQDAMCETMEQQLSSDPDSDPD

SMILES	Kd (Frequenin-2) [µM]	Activity [1]	inhibition [2] [%]	Kd [3] [µM]
O=C(CN1CCCCC1)NN1c2ccccc2Sc2ccccc21	71	Active		
COc1ccccc1C(=O)Nc1nc2cc(C(F)(F)F)ccc2s1			50	11.5
O=C(CC(c1ccccc1)c1ccccc1)Nc1nc2ccccc2s1	1.13		50	1.25
Cc1sc(NC(=O)CNC(=O)c2ccc(F)cc2)nc1-c1ccccc1			50	
